Data set [1] addresses T1, human β3-adrenergic receptor (Homo sapiens, UniProt P13945).
T1 construct: Full length β3 AR clones (402 amino acids) containing the last 6 amino acids of hβ3—AR are prepared; expressed in transfected cells; host or cells: CHO cells
In words: cAMP response (SPA kit) in CHO cells transfected with human β3 adrenergic receptor. Particulars: for EC50: CHO cells expressing human β3-AR, 10^-9 M to 10^-5 M, 30 min at 37° C., cAMP by SPA, read-out: EC50(β3); for IA(β3): maximal response of compound compared to maximal response of isoproterenol at 10^-5 M, CHO cells, human β3-AR. The data set is classed as cell-based.

Where a name gives a salt, the structure may show the parent alone.

T1 sequence (P13945 whole entry): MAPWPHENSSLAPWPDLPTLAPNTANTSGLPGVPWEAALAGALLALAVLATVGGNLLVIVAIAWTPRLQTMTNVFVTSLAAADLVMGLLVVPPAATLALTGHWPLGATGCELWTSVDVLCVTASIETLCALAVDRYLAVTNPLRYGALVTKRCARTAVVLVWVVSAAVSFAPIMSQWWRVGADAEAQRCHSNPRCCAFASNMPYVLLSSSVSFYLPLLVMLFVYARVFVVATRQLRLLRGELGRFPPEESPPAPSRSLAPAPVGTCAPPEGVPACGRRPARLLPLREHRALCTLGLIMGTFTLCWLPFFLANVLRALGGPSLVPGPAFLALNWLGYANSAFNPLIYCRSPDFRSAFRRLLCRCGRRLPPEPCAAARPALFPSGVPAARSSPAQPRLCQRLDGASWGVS

Turning to `O=C(NCc1ccc(Cl)cc1Cl)N1CCC(Nc2ccc(CCNC[C@H](O)COc3ccc(O)cc3)cc2)CC1` (as salt: ammonium) [Example 20, 4-(4-{2-[(2S)-2-Hydroxy-3-(4-hydroxy-phenoxy)-propylamino]-ethyl}-phenylamino)-piperidine-1-carboxylic Acid 2,4-dichloro-benzylamide], the melting point was 93 to 99 °C.

`O=C(NCc1ccc(Cl)c(Cl)c1)N1CCC(Nc2ccc(CCNC[C@H](O)COc3ccc(O)cc3)cc2)CC1` (as salt: ammonium) [Example 21, 4-(4-{2-[(2S)-2-Hydroxy-3-(4-hydroxy-phenoxy)-propylamino]-ethyl}-phenylamino)-piperidine-1-carboxylic Acid 3,4-dichloro-benzylamide] gave a melting point of 94 to 97 °C.

In turn, `CCCCCCNC(=O)Nc1ccc(S(=O)(=O)N2CCC(Nc3ccc(CCNC[C@H](O)COc4ccc(O)cc4)cc3)CC2)cc1` (as salt: hydrochloride) [Example 108, 1-Hexyl-3-{4-[4-(4-{2-[(2S)-2-hydroxy-3-(4-hydroxy-phenoxy)-propylamino]-ethyl}-phenylamino)-piperidine-1-sulfonyl]-phenyl}-urea] had a melting point of 165 to 168 °C.

In turn, `Oc1ccc(OC[C@@H](O)CNCCc2ccc(NC3CCN(c4nc(-c5ccccc5)cs4)CC3)cc2)cc1` (as salt: hydrochloride) [Example 117, 4-[(2S)-2-Hydroxy-3-(2-{4-[1l-(4-phenyl-thiazol-2-yl)-piperidin-4-ylamino]-phenyl}-ethylamino)-propoxy]-phenol] returned a melting point of 80 to 82 °C.

`O=C(NCc1ccc(F)cc1)N1CCC(Nc2ccc(CCNC[C@H](O)COc3ccc(O)cc3)cc2)CC1` (as salt: salt) [Example 1, 4-(4-{2-[(2S)-2-Hydroxy-3-(4-hydroxy-phenoxy)-propylamino]-ethyl}-phenylamino)-piperidine-1-carboxylic Acid 4-fluoro-benzylamide] showed a melting point of 89 to 91 °C.

For `O=C(NC1CCCCC1)N1CCC(Nc2ccc(CCNC[C@H](O)COc3ccc(O)cc3)cc2)CC1` (as salt: salt) [Example 2], the melting point lay within 77 to 86 °C.

As to `Oc1ccc(OC[C@@H](O)CNCCc2ccc(NC3CCN(c4nc(-c5ccccc5)cs4)CC3)cc2)cc1` [Example 117, 4-[(2S)-2-Hydroxy-3-(2-{4-[1l-(4-phenyl-thiazol-2-yl)-piperidin-4-ylamino]-phenyl}-ethylamino)-propoxy]-phenol], in data set [1], the EC50 stood at 208 nM and the “IA(β3)” value was found to be 1.1.

For `CS(=O)(=O)Nc1cc([C@@H](O)CNCCc2ccc(NC3CCN(c4nc(-c5ccccc5)cs4)CC3)cc2)ccc1O` [Example 118, (R)-N-{2-Hydroxy-5-[1-hydroxy-2-(2-{4-[1-(4-phenyl-thiazol-2-yl)-piperidin-4-ylamino]-phenyl}-ethylamino)-ethyl]-phenyl}-methanesulfonamide], in data set [1], the 50% effective concentration (EC50) stood at 22 nM and the “IA(β3)” value came to 0.96.

Regarding `CCOC(=O)c1ccc(N2CCC(Nc3ccc(CCNC[C@H](O)c4ccc(O)c(NS(C)(=O)=O)c4)cc3)CC2)cc1` [Example 120, 4-[4-(4-{2-[(2R)-2-Hydroxy-2-(4-hydroxy-3-methanesulfonylamino-phenyl)-ethylamino]-ethyl}-phenylamino)-piperidin-1-yl]-benzoic Acid Ethyl Ester], in data set [1], the EC50 turned out to be 25 nM and the “IA(β3)” value came to 1.1.

Take `O=C(OCc1cc(F)ccc1F)N1CCC(Nc2ccc(CCNC[C@H](O)COc3ccc(O)cc3)cc2)CC1` [Example 122, 4-(4-{2-[(2S)-2-Hydroxy-3-(4-hydroxy-phenoxy)-propylamino]-ethyl}-phenylamino)-piperidine-1-carboxylic Acid 2,5-difluoro-benzyl Ester]: in data set [1], the EC50 was 100 nM and the “IA(β3)” value was determined as 0.81.

The term melting point denotes the temperature, or range, at which the solid turns liquid. A word on the EC50: it is the concentration giving half of the maximal effect.
